Source: patent US20250289812A1, “COMPOUND FOR TREATING THROMBOTIC DISEASES” (SHANGHAI INSTITUTE OF MATERIA MEDICA, CHINESE ACADEMY OF …, priority 2020, published 2025)

Experiments:
[1] = molecular target: Src kinase SH3 domain protein (Homo sapiens (Human), UniProt P12931); assay: Surface plasmon resonance (SPR) determination of dissociation constants with SH3 protein; assay type: binding; settings: SH3 protein coupled to CM5 chip
Procedure: 1. Experimental method: Surface plasmon resonance test was carried out on BIACORE T200 instrument (GE Company). Fresh purified grade Src kinase SH3 domain protein (concentration 2 mg/ml) was diluted to 0.1 mg/ml with 10 mM CH3COONa (pH 4.2) and then SH3 protein was coupled to the CM5 chip by standard amino coupling methods. The compounds of the invention were diluted in a gradient using a buffer solution (20 mM Tris-HCl, PH 8.0, 100 mM NaCl) for 60 seconds and dissociated for 120 seconds at a flow rate of […], respectively. The changes in response values over time were recorded and analyzed by the BIA Evaluation Software (GE Healthcare) program to obtain the dissociation constants KD for the different compounds with SH3 protein.
2. Experimental results and conclusions: The dissociation constants KD of different compounds and SH3 protein were described in Table 2, and the surface plasmon resonance (SPR) experimental results of some compounds were shown in FIG. 1.

[2] = test system: platelets on solid phase fibrinogen; assay: Effect of compound on platelet stretching on solid phase fibrinogen; assay type: cell-based; settings: 1 h, washed platelets, incubated 60 min at 37° C., read-out: Concentration range for compounds that inhibit platelet stretching on fibrinogen
Procedure: 1. Experimental method: Firstly, 50 μl fibrinogen (0.1M, diluted with pH 8.3 sodium bicarbonate, 20 μg/ml) was added to 96-well plate, and coated overnight at 4° C. After being washed by PBS for 3 times in the morning, sealed with bovine serum albumin (20 mg/ml) at 37° C. for 60 min, then 100 μl of washed platelet suspension was taken, and added into compounds in each group to make the final concentration 250 μM, and incubated at 37° C. for 60 min. 50 μl of incubated platelets were added to 96-well plate, adhered in a temperature box at 37° C. for 60 min, unadhered platelets were removed by PBS washing for 3 times, and adhered platelets were stably fixed with 4% paraformaldehyde, and washed with PBS for 3 times. Then the platelet membrane was perforated with 0.5% Triton X-100, and then the platelet was stained with 0.5 μg/ml phalloidin-rhodamine for 60 min at 37° C. and washed 3 times (10 min each) with PBS.
2. Experimental results and conclusions: The concentration of different compounds on platelet stretching on fibrinogen was shown in Table 3, and the inhibitory effect of some compounds on platelet stretching was shown in FIG. 2.

Src kinase SH3 domain protein, sequence (P12931 whole entry, looked up, the tested form may be a part): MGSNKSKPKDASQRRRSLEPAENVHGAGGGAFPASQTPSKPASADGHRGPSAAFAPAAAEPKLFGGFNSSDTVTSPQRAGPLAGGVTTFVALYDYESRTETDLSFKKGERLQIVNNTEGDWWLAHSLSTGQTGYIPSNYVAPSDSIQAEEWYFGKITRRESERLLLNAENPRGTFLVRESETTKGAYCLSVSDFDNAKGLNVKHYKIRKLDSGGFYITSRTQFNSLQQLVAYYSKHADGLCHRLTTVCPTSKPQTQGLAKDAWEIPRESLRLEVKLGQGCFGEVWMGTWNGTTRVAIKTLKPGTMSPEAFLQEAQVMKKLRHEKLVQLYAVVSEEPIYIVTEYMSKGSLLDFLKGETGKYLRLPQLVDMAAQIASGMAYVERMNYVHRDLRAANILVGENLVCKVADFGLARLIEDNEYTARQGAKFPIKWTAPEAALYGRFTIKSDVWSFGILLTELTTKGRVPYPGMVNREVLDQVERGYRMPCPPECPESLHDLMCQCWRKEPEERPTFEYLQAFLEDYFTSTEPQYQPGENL

SMILES | Kd [1] [nM] | minimal effective concentration [2] [µM]
CCOC(=O)c1c(CSC(=N)N)n(C)c2ccc3ccccc3c12 [SYY-C062] | < 1000 | 10 to 100
CCOC(=O)c1c(CSC(=N)N)n(C)c2cc(C3CC4CCC3C4)ccc12 (stereo not shown) [SYY-C063] | < 1000 | 10 to 100
CCOC(=O)c1c(CNC(=N)N)n(C)c2ccc(-c3ccc4ccccc4c3)cc12 [SYY-C065] | 10000 to 100000 | 10 to 100
CCOC(=O)c1c(CNC(=N)N)n(C)c2cc(-c3ccnc4ccccc34)ccc12 [SYY-C066] | < 1000 | 10 to 100
CCOC(=O)c1c(CNC(=N)N)n(C)c2cc(-c3cccc4ncccc34)ccc12 [SYY-C067] | < 1000 | 10 to 100
CCOC(=O)c1c(CNC(=N)N)n(C)c2cc(C3=CCCc4ccccc43)ccc12 [SYY-C068] | 1000 to 10000 | 100 to 250
CCOC(=O)c1c(CNC(=N)N)n(C)c2ccc(-c3cccc4ccccc34)cc12 [SYY-C070] | < 1000 | 10 to 100
CCOC(=O)c1c(CNC(=N)N)n(C)c2ccc(C3=CCCc4ccccc43)cc12 [SYY-C071] | < 1000 | 10 to 100
CCOC(=O)c1c(CNC(=N)N)n(C)c2cc(-c3ccc(C)c4ccccc34)ccc12 [SYY-C072] | 1000 to 10000 | 10 to 100
CCOC(=O)c1c(CNC(=N)N)n(C)c2cc(-c3cncc4ccccc34)ccc12 [SYY-C073] | < 1000 | 10 to 100
CCOC(=O)c1c(CNC(=N)N)n(C)c2cc(-c3cccc4cnccc34)ccc12 [SYY-C074] | 10000 to 100000 | 10 to 100
CCOC(=O)c1c(CNC(=N)N)n(C)c2cc(-c3cccc4cccnc34)ccc12 [SYY-C075] | < 1000 | 10 to 100
CCOC(=O)c1c(CNC(=N)N)n(C)c2cc(-c3ccc(F)c4ccccc34)ccc12 [SYY-C076] | 1000 to 10000 | 100 to 250
CCOC(=O)c1c(CNC(=N)N)n(C)c2cc(-c3cccc4ccncc34)ccc12 [SYY-C077] | < 1000 | 10 to 100
CCOC(=O)c1c(CNC(=N)N)n(C)c2cc(-c3c4ccccc4cc4ccccc34)ccc12 [SYY-C078] | < 1000 | 10 to 100
CCOC(=O)c1c(CNC(=N)N)n(C(C)C)c2cc(-c3cccc4ccccc34)ccc12 [SYY-C079] | < 1000 | 10 to 100
CCOC(=O)c1c(CNC(=N)N)n(C)c2cc(-c3cccc4cc(C)ccc34)ccc12 [SYY-C080] | < 1000 | 10 to 100
CCOC(=O)c1c(CNC(=N)N)n(C)c2cc(-c3cccc4c(C)cccc34)ccc12 [SYY-C081] | < 1000 | 10 to 100
CCOC(=O)c1c(CNC(=N)N)n(-c2ccccc2)c2cc(-c3cccc4ccccc34)ccc12 [SYY-C082] | < 1000 | 10 to 100
CCOC(=O)c1c(CNC(=N)N)n(C)c2cc(-c3ccc(Cl)c4ccccc34)ccc12 [SYY-C083] | 1000 to 10000 | 100 to 250
CCOC(=O)c1c(CNC(=N)N)n(C)c2cc(-c3cccc4c(Cl)cccc34)ccc12 [SYY-C084] | < 1000 | 10 to 100
CCOC(=O)c1c(CNC(=N)N)n(C)c2cc(-c3cc(C)cc4ccccc34)ccc12 [SYY-C085] | < 1000 | 10 to 100
CCOC(=O)c1c(CNC(=N)N)n(C)c2cc(C3=CCOc4ccccc43)ccc12 [SYY-C086] | < 1000 | 10 to 100
CCOC(=O)c1c(CNC(=N)N)n(C)c2cc(-c3cccc4ccc(C)cc34)ccc12 [SYY-C087] | 10000 to 100000 | 100 to 250

SMILES | Kd [1] [nM] | minimal effective concentration [2] [µM]
CCOC(=O)c1c(CNC(=N)N)n(C)c2cc(-c3c4c(cc5c3CCCC5)CCCC4)ccc12 [SYY-C088] | 10000 to 100000 | 100 to 250
CCOC(=O)c1c(CNC(=N)N)n(C)c2cc(-c3cccc4c(F)cccc34)ccc12 [SYY-C089] | < 1000 | 10 to 100
CCOC(=O)c1c(CNC(=N)N)n(C)c2cc(-c3cc(Cl)cc4ccccc34)ccc12 [SYY-C090] | 1000 to 10000 | 100 to 250
CCOC(=O)c1c(CNC(=N)N)n(C)c2cc(-c3cccc4cccc(C)c34)ccc12 [SYY-C091] | < 1000 | 10 to 100
CCOC(=O)c1c(CNC(=N)N)n(C)c2cc(-c3cc(F)cc4ccccc34)ccc12 [SYY-C092] | 10000 to 100000 | 100 to 250
CCOC(=O)c1c(CNC(=N)N)n(C)c2cc(-c3cccc4cc(Cl)ccc34)ccc12 [SYY-C093] | < 1000 | 10 to 100
CCOC(=O)c1c(CNC(=N)N)n(C)c2cc(-c3cccc4cccc(Cl)c34)ccc12 [SYY-C095] | 10000 to 100000 | 10 to 100
CCOC(=O)c1c(CNC(=N)N)n(C)c2cc(-c3cccc4cccc(F)c34)ccc12 [SYY-C096] | < 1000 | 10 to 100
CCOC(=O)c1c(CNC(=N)N)n(C)c2cc(-c3cccc4ccc(F)cc34)ccc12 [SYY-C097] | 10000 to 100000 | 10 to 100
CCOC(=O)c1c(CNC(=N)N)n(C)c2cc(-c3cccc4cc(F)ccc34)ccc12 [SYY-C098] | < 1000 | 10 to 100
CNC(=O)c1c(CNC(=N)N)n(C)c2cc(-c3cccc4ccccc34)ccc12 [SYY-C099] | < 1000 | 10 to 100
CN(C)C(=O)c1c(CNC(=N)N)n(C)c2cc(-c3cccc4ccccc34)ccc12 [SYY-C100] | 1000 to 10000 | 100 to 250
Cn1c(CNC(=N)N)c(C(N)=O)c2ccc(-c3cccc4ccccc34)cc21 [SYY-C101] | < 1000 | 10 to 100
Cn1c(CNC(=N)N)c(C#N)c2ccc(-c3cccc4ccccc34)cc21 [SYY-C102] | < 1000 | 10 to 100
CCOC(=O)c1c(CNC(=N)N)n(C)c2cc(-c3cccc4ccccc34)c(OC)cc12 [SYY-C103] | 1000 to 10000 | 100 to 250
CCOC(=O)c1c(CNC(=N)N)n(C)c2cc(-c3cccc4ccccc34)c(Cl)cc12 [SYY-C104] | < 1000 | 10 to 100
CC(=O)Nc1c(CNC(=N)N)n(C)c2cc(-c3cccc4ccccc34)ccc12 [SYY-C105] | < 1000 | 10 to 100
CCOC(=O)c1c(CNC(=N)N)oc2cc(-c3cccc4ccccc34)ccc12 [SYY-C106] | 1000 to 10000 | 100 to 250
CCOC(=O)c1c(CNC(=N)N)sc2ccc(-c3cccc4ccccc34)cc12 [SYY-C107] | < 1000 | 10 to 100
CCOC(=O)c1c(CNC(=N)N)sc2cc(-c3cccc4ccccc34)ccc12 [SYY-C108] | 10000 to 100000 | 100 to 250
CCOC(=O)c1c(CNC(=N)N)n(C)c2cc(-c3cccc4ccccc34)c(Br)cc12 [SYY-C109] | < 1000 | 10 to 100
CCOC(=O)c1c(CNC(=N)N)n(C)c2cc(-c3cccc4ccccc34)c(OC3CCCC3)cc12 [SYY-C110] | < 1000 | 10 to 100
CCOC(=O)c1c(CNC(=N)N)n(C)c2cc(-c3cccc4ccccc34)c(C3=CCCC3)cc12 [SYY-C111] | 1000 to 10000 | 100 to 250
